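Test compounds were applied to cells in 96-well plates for 48 hours at 5 doses. At the GI50, growth is halved. The concentration for full growth arrest is given as TGI.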
Assays:
Experiment in all cases: DTP human tumour cell line panel, 48 h
BT-549 breast = system: BT-549 breast
MCF7 breast = system: MCF7 breast
SNB-78 CNS = system: SNB-78 CNS
DMS 114 small cell lung = system: DMS 114 small cell lung
LXFL 529 NSCLC = system: LXFL 529 NSCLC
DLD-1 colon = system: DLD-1 colon
HOP-18 NSCLC = system: HOP-18 NSCLC
MDA-N = system: MDA-N
RXF-631 renal = system: RXF-631 renal

Row | SMILES | GI50 (BT-549 breast) [µM] | TGI (BT-549 breast) [µM] | GI50 (MCF7 breast) [µM] | TGI (MCF7 breast) [µM] | TGI (SNB-78 CNS) [µM] | TGI (DMS 114 small cell lung) [µM] | TGI (DLD-1 colon) [µM] | further results
1 | Oc1ccc(Cc2ccc(O)c3ncccc23)c2cccnc12 | 0.0382 | > 100 | 0.0524 | > 100 |  |  |  | 
2 | C[C@]12CCC3[C@@H](C[C@@H]4SC(Nc5ccccc5)=N[C@@]45CC(=O)CC[C@]35C)[C@@H]1CCC2=O (some centres not stated) | 4.58 | 38.9 | 3.58 | 32.8 |  |  |  | 
3 | O=C1C(Cl)C(c2cccc(O)c2)N1n1cnc2ccccc2c1=O (configuration not stated) |  |  |  |  | > 100 | > 100 | > 100 | TGI (LXFL 529 NSCLC): > 100 µM; TGI (HOP-18 NSCLC): > 100 µM
4 | O=Cc1c(-c2cc(O)ccc2O)nc2sccn12 | 18 | 48.8 | 14.3 | > 100 |  |  |  | 
5 | CC(=O)O[C@H]1C(=O)[C@@]2(C)C(C(OC(=O)c3ccccc3)[C@]3(O)CC(OC(=O)[C@H](OC(=O)CCC(=O)O)C(NC(=O)c4ccccc4)c4ccccc4)C(C)=C1C3(C)C)C1(OC(C)=O)COC1C[C@@H]2OC(=O)CCC(=O)O (some centres not stated) |  |  |  | > 100 |  |  |  | GI50 (MDA-N): 0.253 µM; TGI (MDA-N): 1.21 µM
6 | CCN1C2=NC(=O)N(C)C(=O)C2(Cl)C(C(SC)S(=O)(=O)c2ccc(C)cc2)c2ccccc21 (configuration not stated) |  |  |  |  | 58.3 | > 100 | > 100 | TGI (RXF-631 renal): 51.2 µM; TGI (LXFL 529 NSCLC): 59.3 µM
7 | CC(C)N(C(=O)C12C3C4C5(C#N)C3C1(I)C5C42I)C(C)C (configuration not stated) |  |  |  |  | > 100 | > 59.7 | > 100 | TGI (LXFL 529 NSCLC): > 100 µM; TGI (HOP-18 NSCLC): > 100 µM
8 | O=C(O)c1ccc2c(c1)Cc1cc([N+](=O)[O-])ccc1-2 |  | > 100 |  | > 100 |  |  |  | 
9 | O=C1CCC(Cc2ccc(Cl)cc2Cl)C(=O)N1 (configuration not stated) |  | > 100 |  | > 100 |  |  |  | 
10 | Nc1ccccc1C#C/C=C\C#Cc1ccccc1C(F)(F)F | 0.699 | 17.3 | 1.56 | > 47.5 |  |  |  | 
11 | O=C1C=C[C@@]23CC1C(O)C[C@H]2C=Cc1ccccc13 (some centres not stated) |  |  |  |  |  | > 100 | > 100 | TGI (LXFL 529 NSCLC): > 100 µM
12 | CCOc1ccc(N=Cc2cccc3cccnc23)cc1 |  |  |  |  | > 100 | > 100 | > 100 | TGI (RXF-631 renal): > 100 µM; TGI (LXFL 529 NSCLC): > 100 µM; TGI (HOP-18 NSCLC): > 100 µM
13 | O=c1cc(C(F)(F)F)c2cc3c(cc2o1)NCCC3 |  | > 100 |  | > 100 |  |  |  | TGI (MDA-N): > 100 µM
14 | CCOP(=O)(OCC)C(NC(c1ccccc1)c1ccccc1)c1ccccc1 (configuration not stated) | 15.4 | 34.6 | 15.9 | 31.9 |  |  |  | 
15 | Cc1ccc(NC(=O)CC2C(=O)Nc3ccccc3S2=O)cc1C (configuration not stated) |  |  |  |  | > 100 | > 100 | > 100 | TGI (LXFL 529 NSCLC): > 100 µM
16 | C=C1C(=O)O[C@H]2[C@H]1CC/C(COC(=O)NCc1cc3ccccc3[nH]1)=C\CC[C@@]1(C)O[C@@H]21 | 1.56 | 3.14 | 1.45 | 3.26 |  |  |  | 
17 | CC[C@]1(O)CC2CN(CCc3c([nH]c4ccccc34)[C@@](C(=O)OC)(c3cc4c(cc3OC)N(C)[C@H]3[C@@](O)(C(=O)OC)[C@H](OC(C)=O)[C@]5(CC)C=CCN6CC[C@]43[C@@H]65)C2)C1 (some centres not stated) | 0.00538 | 0.595 | < 0.005 | 6.07 |  |  |  | 
18 | CC1=C(/C=C/C(C)=C\C=C\C(C)=C\C(=O)Nc2ccc3c(c2)OCO3)C(C)(C)CCC1 | 98.5 | > 100 | 11.2 | > 100 |  |  |  | GI50 (MDA-N): 55.7 µM; TGI (MDA-N): > 100 µM

Row | SMILES | GI50 (BT-549 breast) [µM] | TGI (BT-549 breast) [µM] | GI50 (MCF7 breast) [µM] | TGI (MCF7 breast) [µM] | TGI (SNB-78 CNS) [µM] | TGI (DMS 114 small cell lung) [µM] | TGI (DLD-1 colon) [µM] | further results
19 | CC(=O)OC[C@H]1O[C@@H](n2ccc(=O)[nH]c2=O)[C@H](OC(C)=O)[C@@H]1OC(C)=O | > 100 | > 100 | > 100 | > 100 |  |  |  | 
20 | CC1=C([Se]CC(OC(=O)CC[Se]c2ccccc2)C(=O)NCCCCCC(=O)OCc2ccccc2)C(=O)c2ccccc2C1=O (configuration not stated) | 2.99 | 12.2 | 2.51 | 12.7 |  |  |  | 
21 | O=c1n(C2CCCCC2)c(=C(Cl)Cl)c(=C(Cl)Cl)n1C1CCCCC1 |  |  |  |  | > 100 | > 100 | > 100 | TGI (HOP-18 NSCLC): > 100 µM
22 | O=C1C(Cl)=C(Cl)C(=O)N1C1C2CC3CC(C2)CC1C3 (configuration not stated) |  |  |  |  | > 100 | > 100 | > 100 | TGI (LXFL 529 NSCLC): > 100 µM; TGI (HOP-18 NSCLC): > 100 µM
23 | CCN(Cc1cccc(OC)c1)c1ccc(CO)c(Cl)c1 | 13.9 | 28.9 | 0.196 | 14.5 |  |  |  | 
24 | CC(O)/C=C/C(CCC(C)CO)C(C)C (configuration not stated) |  |  |  |  | > 100 | > 100 | > 100 | TGI (RXF-631 renal): > 100 µM; TGI (LXFL 529 NSCLC): > 100 µM
25 | COc1ccc(/C=C/C(=O)c2cc3c(N)c(C(=O)Nc4ccccc4Cl)sc3nc2C)cc1 | 7.24 | 32 | 0.25 | 22 |  |  |  | 
26 | OCCCCC#Cc1ccccc1C#Cc1ccccc1 | 11.6 | 25.9 | 21 | 48.1 |  |  |  | 
27 | COc1cc2oc(=O)ccc2cc1C1OC(=O)C2OC21C (configuration not stated) |  |  |  | > 100 |  |  |  | TGI (MDA-N): > 100 µM
28 | O=S(=O)([O-])c1cccc2cccc(N=Cc3ccccc3[O-])c12.O=S(=O)([O-])c1cccc2cccc(N=Cc3ccccc3[O-])c12.[O]=[U]=[O] |  |  |  |  | > 100 | > 100 | > 100 | GI50 (SNB-78 CNS): > 100 µM; GI50 (DMS 114 small cell lung): 54 µM; GI50 (LXFL 529 NSCLC): 54.5 µM; TGI (LXFL 529 NSCLC): > 100 µM; GI50 (DLD-1 colon): > 100 µM; GI50 (HOP-18 NSCLC): > 100 µM; TGI (HOP-18 NSCLC): > 100 µM
29 | CCCC[C@H]1C(=O)O[C@H](C)[C@H](NC(=O)c2cccc(NC=O)c2O)C(=O)O[C@@H](C)[C@@H]1OC(=O)CC(C)C |  | 36 |  | 25.8 |  |  |  | TGI (MDA-N): 51.9 µM
30 | Cc1cccc(-c2nc3c(C(=O)NCCN(C)C)cccc3[nH]2)c1 |  |  |  |  | 14.6 | 2.51 | 7.95 | TGI (RXF-631 renal): 2.16 µM; TGI (HOP-18 NSCLC): 4.85 µM
31 | OCc1cn(Cc2cccc(Cl)c2)c2ccccc12 | 6.75 | 23.1 | 0.0488 | 27.8 |  |  |  | 
32 | O=C(O)C(=Cc1ccnc2ccccc12)C(=O)O |  | > 100 |  | > 100 |  |  |  | TGI (MDA-N): > 100 µM
33 | [Cl][Bi]([O]c1ccccn1)[O]c1ccccn1 |  |  |  |  |  | > 100 | > 100 | GI50 (DMS 114 small cell lung): 57 µM; GI50 (DLD-1 colon): > 100 µM
34 | CSc1nc(NC2OCC(OC(C)=O)C(OC(C)=O)C2OC(C)=O)c2c(OC(C)=O)c(C)c(=O)oc2n1 (configuration not stated) |  |  |  |  | > 100 | > 100 | > 100 | TGI (RXF-631 renal): > 100 µM; TGI (LXFL 529 NSCLC): > 100 µM; TGI (HOP-18 NSCLC): > 100 µM
35 | Cc1cn(C2CC(F)C(CO)O2)c(=O)[nH]c1=O (configuration not stated) | > 100 | > 100 | > 100 | > 100 |  |  |  | 

Reference: PubChem BioAssay (NCI)
